In brackets after ≈: the same amount, converted by molar mass. Entries after “also recorded” stand apart in the source; their conditions may differ.
Columns and labels:
H460 cells = assay: Cell proliferation (Cell Titer Glo), H460; type: cell-based, human
Protocol: (§1) The cell lines H460, Calu6, SW1573, H1703, H292, H358, HCT-116, HT-29, FET, GEO, SW480, Colo205 CBS, BxPC3, HPAC, CFPAC, MiaPaca-2, Panc1, MDA-MB-468, BT-20, MDA-MB-435 H441, H322, A1165, Igrov-1, Ovcar-3, CA-OV-3, MDAH2774, SW626, SKOV-3, Cal-27, RPMI 2650, and MDA-MB-231 were grown in media as prescribed by the ATCC, containing 10% FCS. Hsc-2, Hsc-4 and OVK-18 were obtained from the Riken Cell Bank and were cultured according to the Riken Cell Bank recommended conditions.

H292 cells = assay: Cell proliferation (Cell Titer Glo), H292; type: cell-based, human; settings: 10 μM erlotinib, 72 hours; maximal growth inhibition greater than 50% = high sensitivity
Protocol: as §1

BxPC3 cells = assay: Cell proliferation (Cell Titer Glo), BxPC3; type: cell-based, human; settings: 10 μM erlotinib, 72 hours; maximal growth inhibition greater than 50% = high sensitivity
Protocol: as §1

[1] = system: phosphorylation of S6 (readout for the activity of mTOR); assay: Western blot of S6 phosphorylation in tumor cell lines; type: cell-based, human; settings: 2 hours
Protocol: Preparation of Protein Lysates and Western Blotting:
With the exception of total ErbB3 (obtained from Santa Cruz Biotechnology, Inc., Santa Cruz, Calif.), all antibodies were obtained from Cell Signaling Technology, Inc. (Danvers, Mass.). For analysis of erlotinib's effect on the phosphorylation of downstream signaling proteins, cell lines were grown to approximately 70% confluency, at which time erlotinib was added at the indicated concentration, and cells were incubated at 37° C. for two hours. Where indicated, 10 ng/ml EGF ligand was added for 5 minutes. The media was removed, cells were washed two times with PBS, and cells were lysed as previously described.

Calu-6 NSCLC tumor cells = assay: Calu6 xenograft model; type: in vivo, mice; settings: day 19; Tarceva 100 mg/kg daily oral, or rapamycin 4 mg/kg i.p. day 1, 8, 15
Description: Female CD-1 nu/nu mice (Charles River Laboratories, Wilmington, Mass.) were implanted with harvested Calu-6 NSCLC tumor cells in a single subcutaneous site on the flank of the mice in the axillary region. Tumors were allowed to grow to 200+50 mm^3, at which time the animals were sorted into treatment groups (see below) of 8 animals per group, having approximately equal body weight (+/−1 g) within a group, and tattooed on the tail for permanent identification. Tumor volumes and body weights were determined twice weekly. The tumor volume was determined by measuring in two directions with vernier calipers and calculated using the formula: Tumor volume=(length×width^2)/2. The data were plotted as the % change in mean values of tumor volume and body weight for each group. The tumor growth inhibition (% TGI) was determined as % TGI=100(1−Wt/Wc): where Wt is the median tumor volume of the treated group at time x and We is the median tumor volume of the control group at time x. Tarceva was dosed in a 6% Captisol (CyDex, Inc) in WFI (Water for Injection) solution and all control animals were dosed with an equal volume of the vehicle. Tarceva animals were dosed by oral gavage once a day for 18 days and the % TGI measured on day 19. Rapamycin was dosed in 4% ethanol/5% PEG400/5% Tween 80 in WFI. […]

[2] = Solubility limit of erlotinib; type: physicochemical
three ovarian cell lines = assay: Apoptosis (Caspase 3/7 Glo), ovarian cell lines; type: cell-based, human; settings: 20 μM Compound A or 10 μM erlotinib
Protocol: as §1

[3] = system: one ovarian and one HNSCC cell line; assay: Apoptosis (Caspase 3/7 Glo), one ovarian and one HNSCC cell line; type: cell-based, human
Protocol: as §1

Calu6 cells = settings: 10 μM erlotinib, 72 hours; maximal growth inhibition greater than 50% = high sensitivity
Protocol: (§2) Measurement of Cell Proliferation: Cell proliferation was determined using the Cell Titer Glo assay (Promega Corporation, Madison, Wisc.). Cell lines were seeded at a density of 3000 cells per well in a 96-well plate. 24 hours after plating cells were dosed with varying concentrations of drug, either as a single agent or in combination. The signal for Cell Titer Glo was determined 72 hours after dosing.
(§3) Analysis of Additivity and Synergy: The Bliss additivism model was used to classify the effect of combining rapamycin and erlotinib as additive, synergistic, or antagonistic. A theoretical curve was calculated for combined inhibition using the equation: Ebliss=EA+EB−EA*EB, where EA and EB are the fractional inhibitions obtained by drug A alone and drug B alone at specific concentrations. […] If the experimentally measured fractional inhibition is less than Ebliss the combination was said to be synergistic. If the experimentally measured fractional inhibition is greater than Ebliss the combination was said to be antagonistic. For dose response curves, the Bliss additivity value was calculated for varying doses of drug A when combined with a constant dose of drug B. This allowed an assessment as to whether drug B affected the potency of drug A or shifted its intrinsic activity. All plots were generated using PRISM® software (Graphpad Software, San Diego, Calif.).

HCT-116 cells = settings: 10 μM erlotinib, 72 hours; maximal growth inhibition greater than 50% = high sensitivity
Protocol: as §2, §3

H358 cells = settings: 10 μM erlotinib, 72 hours; maximal growth inhibition greater than 50% = high sensitivity
Protocol: as §2, §3

[4] = system: 22 cell lines derived from NSCLC, colon, pancreatic, and breast tumors; assay: cells; settings: Homo sapiens, read-out: IC50 value
Protocol: as §2, §3

pAkt (S473) = pAkt (S473) in cancer cell lines; type: cell-based
tumor cells = assay: Anti-proliferative activity across tumor cell lines; type: cell-based

Row | solubility [2] [µM] | IC50 [4] [nM] | IC50 (H460 cells; Homo sapiens, NCI-H460, rapamycin without erlotinib, read-out: potency (growth inhibition)) [nM] | Compound | sensitivity to growth inhibition by erlotinib (H460 cells; 10 μM erlotinib, 72 hours, maximal growth inhibition greater than 50% = high sensitivity) | sensitivity to growth inhibition by erlotinib (H292 cells) | sensitivity to growth inhibition by erlotinib (BxPC3 cells) | down-regulation of phosphorylation of S6 ([1]; relatively insensitive cell lines that have undergone EMT (H460, Calu6, HCT-116)) | down-regulation of phosphorylation of S6 ([1]; three sensitive epithelial cell lines (H292, H358, BxPC3)) | reduction in tumor growth as single agent (Calu-6 NSCLC tumor cells) | apoptosis relative to DMSO treated cells, single agent (three ovarian cell lines) | apoptosis relative to DMSO treated cells, single agent [3] | sensitivity to growth inhibition by erlotinib (Calu6 cells) | sensitivity to growth inhibition by erlotinib (HCT-116 cells) | sensitivity to growth inhibition by erlotinib (H358 cells) | Emax (H460 cells; Homo sapiens, NCI-H460, rapamycin without erlotinib, read-out: maximal efficacy (growth inhibition)) [%] | cancer cell lines in which pAkt (S473) is inhibited (pAkt (S473)) [%] | cell lines in which treatment increases pAkt (S473) (pAkt (S473)) [%] | cell lines in a given tumor type that are insensitive (tumor cells)
1 | 10 (≈ 3.93 µg/mL) | > 10000 | – | C#Cc1cccc(Nc2ncnc3cc(OCCOC)c(OCCOC)cc23)c1 [erlotinib, [6,7-bis(2-methoxyethoxy)-4-quinazolin-4-yl]-(3-ethynylphenyl) amine] | relatively insensitive | most sensitive | most sensitive | less pronounced down-regulation | efficiently down-regulate | no statistically significant reduction; also recorded: Neither rapamycin or erlotinib showed significant reduction | increased apoptosis | modest increase | relatively insensitive | relatively insensitive | most sensitive | – | – | – | –
2 | – | – | 0.267 | CO[C@H]1C[C@@H]2CC[C@@H](C)[C@@](O)(O2)C(=O)C(=O)N2CCCC[C@H]2C(=O)O[C@H]([C@H](C)C[C@@H]2CC[C@@H](O)[C@H](OC)C2)CC(=O)[C@H](C)/C=C(\C)[C@@H](O)[C@@H](OC)C(=O)[C@H](C)C[C@H](C)/C=C/C=C/C=C/1C [rapamycin] | – | – | – | – | – | – | – | – | – | – | – | 34 | ~20 | ~65 | approximately 50%
